# Where two headings read alike, the source gives them in different places.
# Experiments:
# human NK1 receptor = human NK1 receptor (Homo sapiens, UniProt P25103); experiment: NK1 receptor binding, [3H]substance P displacement, CHO cell membranes
# [1] = target: T1, Recombinant human NK3 (hNK3) receptor (Homo sapiens, UniProt P29371); experiment: NK3 receptor binding, [3H]SR142801 displacement, membrane preparations
# T1 construct: expressed in transfected cells
# T1 sequence (P29371 1-465): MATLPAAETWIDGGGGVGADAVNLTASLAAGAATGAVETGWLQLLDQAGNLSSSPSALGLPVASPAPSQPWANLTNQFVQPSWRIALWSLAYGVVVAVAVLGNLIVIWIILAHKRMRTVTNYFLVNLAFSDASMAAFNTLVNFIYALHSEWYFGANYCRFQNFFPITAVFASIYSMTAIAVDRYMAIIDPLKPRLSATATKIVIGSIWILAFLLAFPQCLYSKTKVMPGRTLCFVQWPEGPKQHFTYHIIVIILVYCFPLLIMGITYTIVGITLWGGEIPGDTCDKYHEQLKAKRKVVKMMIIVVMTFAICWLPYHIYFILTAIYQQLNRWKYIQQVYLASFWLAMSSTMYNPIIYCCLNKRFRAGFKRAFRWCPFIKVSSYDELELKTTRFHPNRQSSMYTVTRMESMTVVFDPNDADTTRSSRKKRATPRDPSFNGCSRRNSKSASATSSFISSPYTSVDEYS
# Method: Non specific binding was determined using 10 μM SB222200. Assay buffer consisted of Tris-HCl (50 mM, pH 7.4), BSA (0.1%), MnCl2 (4 mM) and phosphoramidon (1 μM). Membrane preparations of hNK3 receptors (approximately 2.5 μg/well in a 96 well plate) were used to initiate the incubation for 90 min at room temperature. This assay was terminated by rapid filtration under vacuum through GF/C filters, presoaked for 90 min with PEI (0.3%), with 3×0.5 ml washes of ice-cold Tris buffer (50 mM, pH 7.4) containing 0.1% BSA. The radioactivity retained on the filters was measured by scintillation counting. All assays were performed in duplicate in at least two separate experiments.
# [2] = first value of the cell NK1/NK3, read-out: pKi NK1 (converted)
# [3] = second value of the cell NK1/NK3, read-out: pKi NK3 (converted)
# [4] = first value of the cell pKi NK1/NK3, human NK1 receptor, [3H]substance P
# [5] = second value of the cell pKi NK1/NK3, hNK3 receptor, [3H]SR142801
# human NK1 receptor, sequence (P25103 whole entry): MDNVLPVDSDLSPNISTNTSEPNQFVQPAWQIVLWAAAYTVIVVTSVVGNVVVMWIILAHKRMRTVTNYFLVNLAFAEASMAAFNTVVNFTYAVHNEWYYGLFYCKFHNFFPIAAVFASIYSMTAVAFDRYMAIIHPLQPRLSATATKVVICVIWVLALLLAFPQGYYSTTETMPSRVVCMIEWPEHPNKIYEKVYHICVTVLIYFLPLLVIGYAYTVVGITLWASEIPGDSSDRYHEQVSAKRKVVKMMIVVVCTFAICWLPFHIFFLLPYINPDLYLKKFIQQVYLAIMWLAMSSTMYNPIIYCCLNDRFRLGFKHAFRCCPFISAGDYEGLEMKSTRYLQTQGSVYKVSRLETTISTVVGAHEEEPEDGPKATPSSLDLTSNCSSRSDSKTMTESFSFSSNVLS
Ki (human NK1 receptor; [2]),"Ki [1, 3]",Ki (human NK1 receptor; [4]),"Ki [1, 5]",SMILES
7.76 nM,16.6 nM,–,–,"CN(C(=O)C(C)(C)c1cc(C(F)(F)F)cc(C(F)(F)F)c1)c1cnc(N2C[C@H](O)C[C@H]2CO)cc1-c1cc(Cl)ccc1Cl [Example 226, (2S,4R)-2-(3,5-Bis-trifluoromethyl-phenyl)-N-[4-(2,5-dichloro-phenyl)-6-(4-hydroxy-2-hydroxymethyl-pyrrolidin-1-yl)-pyridin-3-yl]-N-methyl-isobutyramide]"
–,–,3.8 nM,1.2 nM,"Cc1ccc(F)cc1-c1cc(N2CCC[C@H]2CO)ncc1N(C)C(=O)C(C)(C)c1cc(C(F)(F)F)cc(C(F)(F)F)c1 [Example 166, (S)-2-(3,5-Bis-trifluoromethyl-phenyl)-N-[4-(5-fluoro-2-methyl-phenyl)-6-(2-hydroxymethyl-pyrrolidin-1-yl)-pyridin-3-yl]-N-methyl-isobutyramide]"
–,–,2.19 nM,1.55 nM,"Cc1ccccc1-c1cc(N2CCC[C@H]2CO)ncc1N(C)C(=O)C(C)(C)c1cc(F)cc(C(F)(F)F)c1 [Example 13, (S)-2-(3-Fluoro-5-trifluoromethyl-phenyl)-N-[6-(2-hydroxymethyl-pyrrolidin-1-yl)-4-o-tolyl-pyridin-3-yl]-N-methyl-isobutyramide]"
–,–,3.16 nM,5.75 nM,"Cc1cc(F)ccc1-c1cc(N[C@H]2CCC[C@@H]2O)ncc1N(C)C(=O)C(C)(C)c1cc(C(F)(F)F)cc(C(F)(F)F)c1 [Example 154, (1S,2S)-2-(3,5-Bis-trifluoromethyl-phenyl)-N-[4-(4-fluoro-2-methyl-phenyl)-6-(2-hydroxy-cyclopentylamino)-pyridin-3-yl]-N-methyl-isobutyramide]"
–,–,0.891 nM,11.7 nM,"C[C@@H](O)[C@H](CO)Nc1cc(-c2ccccc2Cl)c(N(C)C(=O)C(C)(C)c2cc(C(F)(F)F)cc(C(F)(F)F)c2)cn1 [Example 146, (1S,2R)-2-(3,5-Bis-trifluoromethyl-phenyl)-N-[4-(2-chloro-phenyl)-6-(2-hydroxy-1-hydroxymethyl-propylamino)-pyridin-3-yl]-N-methyl-isobutyramide]"
–,–,1.29 nM,3.02 nM,"Cc1ccccc1-c1cc(N2C[C@@H](O)C[C@@H]2CO)ncc1N(C)C(=O)C(C)(C)c1cc(F)cc(C(F)(F)F)c1 (stereo in doubt) [Example 14, (2R,4S)-2-(3-Fluoro-5-trifluoromethyl-phenyl)-N-[6-(4-hydroxy-2-hydroxymethyl-pyrrolidin-1-yl)-4-o-tolyl-pyridin-3-yl]-N-methyl-isobutyramide]"
1.95 nM,2 nM,–,–,"Cc1ccc(F)cc1-c1cc(N2C[C@@H](O)C[C@H]2CO)ncc1N(C)C(=O)C(C)(C)c1cc(C(F)(F)F)cc(C(F)(F)F)c1 [Example 250, (2S,4S)-2-(3,5-Bis-trifluoromethyl-phenyl)-N-[4-(5-fluoro-2-methyl-phenyl)-6-(4-hydroxy-2-hydroxymethyl-pyrrolidin-1-yl)-pyridin-3-yl]-N-methyl-isobutyramide]"
–,–,3.24 nM,4.9 nM,"CC(C)C[C@@H](CO)Nc1cc(-c2ccccc2Cl)c(N(C)C(=O)C(C)(C)c2cc(C(F)(F)F)cc(C(F)(F)F)c2)cn1 [Example 59, (S)-2-(3,5-Bis-trifluoromethyl-phenyl)-N-[4-(2-chloro-phenyl)-6-(1-hydroxymethyl-3-methyl-butylamino)-pyridin-3-yl]-N-methyl-isobutyramide]"
–,–,1.78 nM,6.03 nM,"CC(=O)NCCNc1cc(-c2ccccc2Cl)c(N(C)C(=O)C(C)(C)c2cc(C(F)(F)F)cc(C(F)(F)F)c2)cn1 [Example 90, N-[6-(2-Acetylamino-ethylamino)-4-(2-chloro-phenyl)-pyridin-3-yl]-2-(3,5-bis-trifluoromethyl-phenyl)-N-methyl-isobutyramide]"
–,–,1.7 nM,1.26 nM,"COc1cc(Cl)cc(C(C)(C)C(=O)N(C)c2cnc(N3C[C@H](O)C[C@H]3CO)cc2-c2ccccc2Cl)c1 [Example 8, (2S,4R)-2-(3-Chloro-5-methoxy-phenyl)-N-[4-(2-chloro-phenyl)-6-(4-hydroxy-2-hydroxymethyl-pyrrolidin-1-yl)-pyridin-3-yl]-N-methyl-isobutyramide]"
–,–,0.631 nM,15.5 nM,"CC(=O)N[C@@H]1CCN(c2cc(-c3ccccc3Cl)c(N(C)C(=O)C(C)(C)c3cc(C(F)(F)F)cc(C(F)(F)F)c3)cn2)C1 [Example 44, (R)-N-[6-(3-Acetylamino-pyrrolidin-1-yl)-4-(2-chloro-phenyl)-pyridin-3-yl]-2-(3,5-bis-trifluoromethyl-phenyl)-N-methyl-isobutyramide]"
2.82 nM,1.17 nM,–,–,"Cc1ccccc1-c1cc(N2CCC[C@H]2CO)ncc1N(C)C(=O)C(C)(C)c1cc(C(F)(F)F)cc(C(F)(F)F)c1 [Example 279, (S)-2-(3,5-Bis-trifluoromethyl-phenyl)-N-[6-(2-hydroxymethyl-pyrrolidin-1-yl)-4-o-tolyl-pyridin-3-yl]-N-methyl-isobutyramide]"
0.794 nM,3.02 nM,–,–,"CN(C(=O)C(C)(C)c1cc(C(F)(F)F)cc(C(F)(F)F)c1)c1cnc(N2C[C@@H](O)C[C@H]2CO)cc1-c1ccc(F)cc1CO [Example 240, (2S,4S)-2-(3,5-Bis-trifluoromethyl-phenyl)-N-[4-(4-fluoro-2-hydroxymethyl-phenyl)-6-(4-hydroxy-2-hydroxymethyl-pyrrolidin-1-yl)-pyridin-3-yl]-N-methyl-isobutyramide]"
–,–,0.417 nM,14.1 nM,"CC(=O)N1CCN(c2cc(-c3ccccc3Cl)c(N(C)C(=O)C(C)(C)c3cc(C(F)(F)F)cc(C(F)(F)F)c3)cn2)CC1 [Example 61, N-[6-(4-Acetyl-piperazin-1-yl)-4-(2-chloro-phenyl)-pyridin-3-yl]-2-(3,5-bis-trifluoromethyl-phenyl)-N-methyl-isobutyramide]"
–,–,2.04 nM,24.5 nM,"Cc1ccccc1-c1cc(N2CC[C@H](O)[C@@H](CO)C2)ncc1N(C)C(=O)C(C)(C)c1cc(C(F)(F)F)cc(C(F)(F)F)c1 (racemic) [Example 191, (3RS,4SR)-2-(3,5-Bis-trifluoromethyl-phenyl)-N-(4-hydroxy-3-hydroxymethyl-4′-o-tolyl-3,4,5,6-tetrahydro-2H-[1,2′]bipyridinyl-5′-yl)-N-methyl-isobutyramide]"
–,–,2.09 nM,5.62 nM,"CN(C(=O)C(C)(C)c1cc(C(F)(F)F)cc(C(F)(F)F)c1)c1cnc(NC(CO)CO)cc1-c1ccccc1Cl [Example 81, 2-(3,5-Bis-trifluoromethyl-phenyl)-N-[4-(2-chloro-phenyl)-6-(2-hydroxy-1-hydroxymethyl-ethylamino)-pyridin-3-yl]-N-methyl-isobutyramide]"
–,–,2.51 nM,12.6 nM,"Cc1ccccc1-c1cc(NC[C@@H](O)CO)ncc1N(C)C(=O)C(C)(C)c1cc(C(F)(F)F)cc(C(F)(F)F)c1 [Example 123, (R)-2-(3,5-Bis-trifluoromethyl-phenyl)-N-[6-(2,3-dihydroxy-propylamino)-4-o-tolyl-pyridin-3-yl]-N-methyl-isobutyramide]"
1.05 nM,1.02 nM,–,–,"CN(C(=O)C(C)(C)c1cc(C(F)(F)F)cc(C(F)(F)F)c1)c1cnc(N2C[C@H](O)C[C@H]2CO)cc1-c1ccc(F)cc1C=O [Example 222, (2S,4R)-2-(3,5-Bis-trifluoromethyl-phenyl)-N-[4-(4-fluoro-2-formyl-phenyl)-6-(4-hydroxy-2-hydroxymethyl-pyrrolidin-1-yl)-pyridin-3-yl]-N-methyl-isobutyramide]"
–,–,4.47 nM,0.977 nM,"Cc1c(F)cccc1-c1cc(N2CCC[C@H]2CO)ncc1N(C)C(=O)C(C)(C)c1cc(C(F)(F)F)cc(C(F)(F)F)c1 [Example 167, (S)-2-(3,5-Bis-trifluoromethyl-phenyl)-N-[4-(3-fluoro-2-methyl-phenyl)-6-(2-hydroxymethyl-pyrrolidin-1-yl)-pyridin-3-yl]-N-methyl-isobutyramide]"
–,–,1.66 nM,17.4 nM,"CN(C(=O)C(C)(C)c1cc(C(F)(F)F)cc(C(F)(F)F)c1)c1cnc(N2CC[C@@H](O)[C@@H](CO)C2)cc1-c1ccccc1Cl (racemic) [Example 194, (3RS,4RS)-2-(3,5-Bis-trifluoromethyl-phenyl)-N-[4′-(2-chloro-phenyl)-4-hydroxy-3-hydroxymethyl-3,4,5,6-tetrahydro-2H-[1,2′]bipyridinyl-5′-yl]-N-methyl-isobutyramide]"
–,–,0.871 nM,7.41 nM,"C[C@@H](O)CNc1cc(-c2ccccc2Cl)c(N(C)C(=O)C(C)(C)c2cc(C(F)(F)F)cc(C(F)(F)F)c2)cn1 [Example 73, (R)-2-(3,5-Bis-trifluoromethyl-phenyl)-N-[4-(2-chloro-phenyl)-6-(2-hydroxy-propylamino)-pyridin-3-yl]-N-methyl-isobutyramide]"
